Test results as given in patent US12281299B2, “Control of nitrogen fixation in rhizobia that associate with cereals” (Massachusetts Institute of Technology, priority 2019, dated 2025).
Structures can show the parent of a compound that is named as a salt.

System: R. sp. IRBG74
Test: Genetic part characterization for Rhizobia (promoters, RBSs, terminators, inducible systems; fluorescence reporter, flow cytometry)
Assay type: cell-based, Rhizobium sp.
Conditions: synthetic RBS strength in R. sp. IRBG74; plasmid pMR-40, IPTG-inducible system, 1 mM IPTG induction
Source text: Construction and characterization genetic parts for Rhizobia. Genetic part libraries were built on a pBBR1-ori plasmid pMR-1 using Gibson assembly (New England Biolabs, Cat # E2611). The fluorescence proteins, GFPmut3b and mRFP1 were used as reporters. The Anderson promoter library (Anderson, J. et al. BglBricks: A flexible standard for biological part assembly. 4, 1 (2010)) on the BioBricks Registry were utilized for the characterization of constitutive promoters (FIGS. 11A-11C). To characterize inducible promoters, a regulator protein is constitutively expressed by the PlacIq promoter, and GFP expression is driven by a cognate inducible promoter from the opposite direction, facilitating replacement of the reporter with gene of interest (e.g., T7 RNAP and nifA) and transfer of the controller unit across different plasmid backbones for diverse microbes. The following combinations of cognate regulators and inducible promoters were characterized. IPTG inducible LacI-A1lacO1, DAPG inducible PhlF-PPhl, aTc inducible TetR-PTet, 3OC6HSL inducible LuxR-PLux, salicylic acid inducible NahR-PSal, and cuminic acid inducible CymR-PCym systems were optimized for R. sp. IRBG74 (FIG. 14). Opine inducible OccR-Pocc, and nopaline inducible NocR-Pnoc systems were optimized for A. caulinodans (FIGS. 20A-20F and Tables 9 and 10). For RBS characterization, an IPTG-inducible GFP expression plasmid pMR-40 was used and GFP was expressed to the highest levels with 1 mM IPTG (FIGS. 12A-12B). RBS library for GFP was designed using the RBS library calculator at the highest-resolution mode, and the 3′ end of the 16S rRNA sequences were adjusted according to the species (3′-ACCTCCTTC-5′ for R. sp. IRBG74). Terminators for T7 RNAP were characterized by placing a terminator between two fluorescence reporters expressed from a single T7 wild-type promoter located upstream of the first fluorescence protein GFP. The expression of the two fluorescence proteins is enabled by the controller strain MR18 encoding the IPTG-inducible T7 RNAP system by 1 mM IPTG (FIGS. 13A-13B). The terminator strength (Ts) was determined by normalizing fluorescence levels of a terminator construct by a reference construct pMR-66 where a 40 bp spacer was placed between the reporters. All genetic parts for Rhizobia were characterized as follows.

In order of falling “Strength (GFP, au)” value:
1. RB5r1 (DNA ATTTCACACATCTAGAGCTAATCATCTCGTACTAAAGAGGAGAAATTAACCATG; chemistry not fully specified)  8242 au
2. RB5r2 (DNA ATTTCACACATCTAGAGCTAATCATCGCGTACTCAGGAGGCAAGTAATG; chemistry not fully specified)  7181.5 au
3. RB5r3 (DNA ATTTCACACATCTAGAATTAAAGAGGAGAAATTAACCATG; chemistry not fully specified)  6238.5 au
4. RB5r4 (DNA TAACAATTTCACACATCTAGAGCTAATCATCTCGTACTAAAGAGGCAAGTAATG; chemistry not fully specified)  3618 au
5. RB5r5 (DNA TAACAATTTCACACATCTAGAGCTAATCATCGCGTACTAAGGAGGCAAGTAATG; chemistry not fully specified)  3560 au
6. RB5r6 (DNA TAACAATTTCACACATCTAGAGCTAATCATCGCGTACTCAAGAGGCAAGTAATG; chemistry not fully specified)  2614.5 au
7. RB5r7 (DNA TAACAATTTCACACATCTAGAGCTAATCTTCGCGTACTAAAGAGGCAAGTAATG; chemistry not fully specified)  2418.5 au
8. RB5r8 (DNA TAACAATTTCACACATCTAGAGCTAATCATCTCGTACTCAGGAGGCAAGTAATG; chemistry not fully specified)  1882.5 au
9. RB5r9 (DNA TAACAATTTCACACATCTAGAGCTAATCATCTCGTACTAATGAGGCAAGTAATG; chemistry not fully specified)  1593.5 au
10. RBST-10 (DNA TAACAATTTCACACATCTAGAGCTAATCATCGCGTACTAATGAGGCAAGTAATG; chemistry not fully specified)  1590 au
11. RBST-11 (DNA TAACAATTTCACACATCTAGAGCTAATCATCGCGTACTCACGAGGCAAGTAATG; chemistry not fully specified)  1554 au
12. RBST-12 (DNA TAACAATTTCACACATCTAGAGCTAATCATCGCGTACTAAAAAGGCAAGTAATG; chemistry not fully specified)  1138 au
13. RBST-13 (DNA TAACAATTTCACACATCTAGAGCTAATCTTCGCGTACTAAAAAGGCAAGTAATG; chemistry not fully specified)  895.5 au
14. RBST-15 (DNA TAACAATTTCACACATCTAGAGCTAATCATCTCGTACTAAATAGGCAAGTAATG; chemistry not fully specified)  648.5 au
15. RBST-14 (DNA TAACAATTTCACACATCTAGAGCTAATCTTCGCGTACTAAGAAGGCAAGTAATG; chemistry not fully specified)  632.5 au
16. RBST-16 (DNA TAACAATTTCACACATCTAGAGCTAATCATCTCGTACTAATAAGGCAAGTAATG; chemistry not fully specified)  532 au
17. RBST-17 (DNA TAACAATTTCACACATCTAGAGCTAATCTTCTCGTACTAAAGAGGCAAGTAATG; chemistry not fully specified)  488 au
18. RBST-18 (DNA TAACAATTTCACACATCTAGAGCTAATCATCGCGTACTCAATAGGCCAGTAATG; chemistry not fully specified)  305.5 au
19. RBST-20 (DNA TAACAATTTCACACATCTAGAGCTAATCATCTCGTACTAACGAGGCAAGTAATG; chemistry not fully specified)  248 au
20. RBST-19 (DNA TAACAATTTCACACATCTAGAGCTAATCATCGCGTACTAAGTAGGCAAGTAATG; chemistry not fully specified)  242 au
21. RBST-21 (DNA TAACAATTTCACACATCTAGAGCTAATCATCGCGTACTCAGCAGGCAAGTAATG; chemistry not fully specified)  183 au
22. RBST-22 (DNA TAACAATTTCACACATCTAGAGCTAATCTTCGCGTACTAAGTAGGCAAGTAATG; chemistry not fully specified)  130 au
23. RBST-23 (DNA TAACAATTTCACACATCTAGAGCTAATCTTCGCGTACTAATTAGGCAAGTAATG; chemistry not fully specified)  84.4 au
24. RBST-24 (DNA TAACAATTTCACACATCTAGAGCTAATCTTCTCGTACTAACAAGGCAAGTAATG; chemistry not fully specified)  75.15 au
25. RBST-25 (DNA TAACAATTTCACACATCTAGAGCTAATCATCTCGTACTCAATAGGCAAGTAATG; chemistry not fully specified)  45.45 au
26. RBST-26 (DNA TAACAATTTCACACATCTAGAGCTAATCATCTCGTACTAAGCACGCAAGTAATG; chemistry not fully specified)  36 au
27. RBST-28 (DNA TAACAATTTCACACATCTAGAGCTAATCTTCGCGTACTAAGAACGCAAGTAATG; chemistry not fully specified)  13 au
28. RBST-27 (DNA TAACAATTTCACACATCTAGAGCTAATCATCGCGTACTAACTACGCAAGTAATG; chemistry not fully specified)  12.2 au
29. RBST-29 (DNA TAACAATTTCACACATCTAGAGCTAATCTTCGCGTACTAAAAACGCAAGTAATG; chemistry not fully specified)  4.6 au
30. RBST-30 (DNA TAACAATTTCACACATCTAGAGCTAATCTTCGCGTACTAACAACGCAAGTAATG; chemistry not fully specified)  2.95 au
31. RBST-31 (DNA TAACAATTTCACACATCTAGAGCTAATCTTCTCGTACTCATGACGCAAGTAATG; chemistry not fully specified)  1.45 au

System: P. protegens Pf-5
Test: Genetic part characterization for P. protegens (promoters, RBSs, terminators, inducible systems; fluorescence reporter, flow cytometry)
Assay type: cell-based, Pseudomonas protegens
Conditions: P. protegens Pf-5, pRO1600 plasmid
Source text: Construction and characterization genetic parts for P. protegens. Genetic part libraries were built on a pRO1600-ori plasmid pMR-2 using Gibson assembly (New England Biolabs, Cat # E2611). The fluorescence proteins, GFPmut3b and mRFP1 were used as reporters. The Anderson promoter library on the BioBricks Registry were utilized for the characterization of constitutive promoters (FIGS. 11A-11C). The following combinations of cognate regulators and inducible promoters were characterized. IPTG inducible LacI-Ptac, DAPG inducible PhlF-PPhl, aTc inducible TetR-PTet, 3OC6HSL inducible LuxR-PLux, arabinose inducible AraC-PBAD, cuminic acid inducible CymR-PCym, and naringenin inducible FdeR-PFde were optimized (FIGS. 15A-15C). […] RBS library for GFP was designed using the RBS library calculator at the highest-resolution mode, and the 3′ end of the 16S rRNA sequences were adjusted according to the species (3′-ACCTCCTTA-5′ for P. protegens Pf-5). Terminators for T7 RNAP were characterized by placing a terminator between two fluorescence reporters expressed from a single T7 wild-type promoter located upstream of the first fluorescence protein GFP. The expression of the two fluorescence proteins is enabled by an IPTG-inducible T7 RNAP expression system of the controller strain MR7 (FIGS. 13A-13B). All genetic parts for P. protegens Pf-5 were characterized as follows.

With `CC(C)c1ccc(C(=O)O)cc1` [cuminic acid, Cuminic acid, reference compound] the “function of inducible system” value was “functional”.
For `Cc1c2c(c(O)c3c(O)cccc13)C(=O)[C@]1(O)C(=O)C(C(N)=O)=C(O)[C@@H](N(C)C)[C@@H]1C2` [aTc, Anhydrotetracycline hydrochloride, reference compound], the “function of inducible system” value was “functional”.

Same assay, conditions: synthetic RBS strength in P. protegens Pf-5; plasmid pMR-65, arabinose-inducible system, 7 μM arabinose induction

In order of falling “Strength (GFP, au)” value:
1. R135133 (DNA CTAGCGAAGGTCCAACGTTTTTCTAAGCCAGGAGGTCATATG; chemistry not fully specified)  19690 au
2. RBSp9 (DNA GAATTCTTAACTAACGGACAGGAGGGTCCGATG; expressed or natural sequence)  11490 au
3. RBSp17 (DNA GAATTCTCAACTAACGGACAGGAGATATACATATG; expressed or natural sequence)  5939 au
4. RBSp19 (DNA GAATTCTAAACTAACGGACAGGAGGGTCGGATG; expressed or natural sequence)  4867 au
5. RBSp21 (DNA GAATTCTCAACTAACGGACAGGAGGGTCGGGATG; expressed or natural sequence)  4110 au
6. RBSp29 (DNA CTAGCGAAGGTCCAACCTTTTTCTAAGCCAGTAGGTCATATG; expressed or natural sequence)  377 au
